Data taken from patent US20120015925A1, “NOVEL BENZOTHIAZEPINE AND BENZOTHIEPINE COMPOUNDS” (ASAHI KASEI PHARMA CORPORATION, priority 2004, published 2012).

Legend:
[1] = test system: rats with partial ligation of the bile duct dosed bile acid; experiment: Model for hepatic disorder associated with cholestasis (partial bile duct ligation model), Protocol A: AST, ALT, ALP; assay type: in vivo, rat
Description: In the present Test Example, a model for the hepatic disorder caused by partial ligation of the bile duct was employed with reference to Kanno's method (Liver, 43, Suppl(1):A126, 2002).
That is, to the SD (IGS) strain male rats at 7 to 10 weeks of age, the partial ligation of the bile duct was given with opening the abdominal cavity under anesthesia with pentobarbital. Before the operation, the blood was collected from femoral vein, in order to obtain the value before the administration. From the day after the operation, 200 mg/kg of bile acid and the test compound were orally administered forcibly twice per day for 3.5 days (Protocol A). Without giving the partial ligation of the bile duct, 200 mg/kg of bile acid and the test compound were also orally administered forcibly twice per day for 3.5 days (Protocol B). In both cases, the test compound was dissolved or suspended in distilled water or an aqueous solution of 1% HCO 60 (Nippon Chemicals). To the control group, saline was administered. As comparative examples, 25 mg/kg of cholestyramine (supplied from Sigma) or 50 mg/kg of ursodeoxycholic acid (supplied from Mitsubishi Pharma) was administered. For considering the effect of the operation, sham operation (sham group) was performed in some cases. The blood was collected from the abdominal aorta 6 hours after the drug administration on the final day of the experiment. AST (GOT), ALT (GPT) and ALP in the blood were measured using measurement kits (GOT II-HA Test Wako, GPT II-HA Test Wako and Alkaline Phosphor HA Test Wako, all were supplied from Wako Pure Chemical Industries) and using an automatic analyzer (Nitech ANALAYZER SUPER Z818).

human IBAT = target: T1, human IBAT (Homo sapiens, UniProt Q12908); experiment: In vitro assay using Cos 7 cells, transiently expressed human IBAT; assay type: cell-based; settings: [3H]-taurocholate 8 μM uptake, 37° C., 60 minutes
T1 sequence (Q12908 1-348): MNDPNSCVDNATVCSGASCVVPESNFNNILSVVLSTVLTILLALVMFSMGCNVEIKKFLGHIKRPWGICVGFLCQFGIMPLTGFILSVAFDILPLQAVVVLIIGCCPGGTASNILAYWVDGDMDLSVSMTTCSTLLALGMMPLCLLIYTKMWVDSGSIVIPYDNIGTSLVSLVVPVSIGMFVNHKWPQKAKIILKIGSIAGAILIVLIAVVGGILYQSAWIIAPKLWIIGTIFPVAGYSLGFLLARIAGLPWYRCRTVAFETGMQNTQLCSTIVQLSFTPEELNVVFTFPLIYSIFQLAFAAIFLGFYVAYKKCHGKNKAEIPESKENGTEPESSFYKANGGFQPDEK
How it was run: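 Cos 7 cells transfected with human or rat IBAT cDNA were assayed one day later in Hanks buffer with 25 mM glucose and 10 mM HEPES (pH 7.4) containing compound. [^3H]-taurocholate (8 μM final) uptake ran 60 min at 37° C. Cells were washed with 1 mM taurocholate, lysed in NaOH, and counted by liquid scintillation.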

male beagle dogs = experiment: Effect of combination with pravastatin on plasma total cholesterol levels in dogs; assay type: in vivo, dog; settings: for plasma total cholesterol BEFORE TREATMENT: Example compound 3 mg/kg alone group, baseline; for plasma total cholesterol BEFORE TREATMENT / plasma total cholesterol AFTER TREATMENT: N=4, mean±standard error; for plasma total cholesterol AFTER TREATMENT / plasma total cholesterol BEFORE TREATMENT − AFTER TREATMENT / reduction rate with respect to the data before administration (number in parenthesis): Example compound 3 mg/kg alone, oral once daily for 7 days; for plasma total cholesterol BEFORE TREATMENT − AFTER TREATMENT / reduction rate with respect to the data before administration (number in parenthesis): vehicle 1
Description: The effect of the combination of the compounds described in Example with pravastatin (HMG-CoA reductase inhibitor) on plasma cholesterol levels in dogs was examined.
To male beagle dogs (supplied from Kitayama Labes, body weight 9 to 13 kg), usual solid feedstuff (DS-A: Oriental Yeast Co., Ltd.) was given once daily at 13:00 to 14:00. The light was turned on from 7:00 to 19:00 as a light period, and the remaining was defined as a dark period. Water was given ad libitum. In the morning in the week prior to the administration, the blood was collected with heparin from forearm cephalic vein, and plasma was collected by centrifugation. The total cholesterol level of this plasma was measured using the commercially available cholesterol level measurement kit by the enzymatic method (Cholesterol-E Test Wako). The dogs were grouped so that the total cholesterol levels were almost equal. Sodium pravastatin (1 mg/kg, Sankyo) alone or 3 mg/kg of the compound described in each of Examples alone or the combination thereof was orally administered once daily just before feeding for 7 days. Pravastatin was dissolved in distilled water, and the compound described in Example was suspended in 0.5% methylcellulose solution for administration. On the day after the final administration, the blood was collected from the forearm cephalic vein under starving, to which plasma was obtained. The total cholesterol level therein was measured by the same way. As a result, the total cholesterol level in the plasma was reduced by 7 mg/dL (6%) by orally administering 1 mg/kg/day of pravastatin for 7 days. The total cholesterol level in the plasma was reduced by […] (3 to 8%) by orally administering 3 mg/kg/day of the compound described in each of Examples for 7 days. When pravastatin and the compound described in each of Examples were co-administered at this dosages, the total cholesterol in the plasma was reduced by 14 to 24 mg/dL (12 to 20%). The reduction rate of the total cholesterol level was larger in the co-administration with the compound described in Example than in the administration of pravastatin alone, and the augmented effect by the co-administration was observed.

[2] = Table 12-1, Protocol A, 1 mg/kg in 1% HCO 60, N=3, mean±standard error, control group 417 ± 185, sham 43 ± 1
[3] = Table 12-1, Protocol A, 1 mg/kg in 1% HCO 60, N=3, mean±standard error, control group 589 ± 221, sham 141 ± 26
[4] = Table 12-1, Protocol A, 1 mg/kg in 1% HCO 60, N=3, mean±standard error, control group 2318 ± 583, sham 665 ± 94
[5] = Table 12-2, 1 mg/kg in 1% HCO 60, N=3, mean±standard error, control group 384 ± 156, sham 48 ± 5
[6] = Table 12-2, 1 mg/kg in 1% HCO 60, N=3, mean±standard error, control group 643 ± 125, sham 128 ± 18
[7] = Table 12-2, 1 mg/kg in 1% HCO 60, N=3, mean±standard error, control group 2204 ± 327, sham 630 ± 87

| SMILES | ALT [1, 2] [IU/L] | AST [1, 3] [IU/L] | ALP [1, 4] [IU/L] | IC50 (human IBAT) [nM] | ALT [1, 5] [IU/L] | AST [1, 6] [IU/L] | ALP [1, 7] [IU/L] | plasma total cholesterol BEFORE TREATMENT (male beagle dogs) [mg/dL] | plasma total cholesterol AFTER TREATMENT (male beagle dogs) [mg/dL] | plasma total cholesterol BEFORE TREATMENT − AFTER TREATMENT (male beagle dogs) | reduction rate with respect to the data before administration (number in parenthesis) (male beagle dogs) | ALT ([1]; Table 11, Protocol A, 0.1 mg/kg oral twice per day for 3.5 days, N=8, mean±standard error, control group 200 ± 81) [IU/L] | AST ([1]; Table 11, Protocol A, 0.1 mg/kg oral twice per day for 3.5 days, N=8, mean±standard error, control group 400 ± 160) [IU/L] | ALP ([1]; Table 11, Protocol A, 0.1 mg/kg oral twice per day for 3.5 days, N=8, mean±standard error, control group 1120 ± 410) [IU/L] |
| --- | --- | --- | --- | --- | --- | --- | --- | --- | --- | --- | --- | --- | --- | --- |
| CCCCC1(CCCC)CS(=O)(=O)c2ccc(N(C)C)cc2C(c2cccc(NC(=S)Nc3ccc(C[N+]4(Cc5ccccc5)CCC(O)CC4)cc3)c2)N1.[Br-] (centres unmarked) [EXAMPLE 3605] | 258 ± 219 | 487 ± 382 | 1489 ± 533 | 39 | – | – | – | – | – | – | – | – | – | – |
| CCCCC1(CCCC)CS(=O)(=O)c2ccc(N(C)C)cc2C(c2cccc(NC(=S)Nc3ccc(C[N+]45CCC(c6ccccc6)(CC4)CC5)cc3)c2)N1.[Br-] (racemic) [EXAMPLE 3696] | – | – | – | 39 | 191 ± 21 | 325 ± 87 | 1209 ± 125 | 119 ± 2 | 115 ± 3 | 3 (3) mg/dL | 3 (3) | – | – | – |
| CCCCC1(CCCC)CS(=O)(=O)c2ccc(N(C)C)cc2C(c2cccc(NC(=S)Nc3ccc(C[N+](C)(C)Cc4ccccc4)cc3)c2)N1.[Br-] (centres unmarked) [EXAMPLE 3440] | 155 ± 38 | 309 ± 37 | 1614 ± 189 | 37 | – | – | – | – | – | – | – | – | – | – |
| CCCCC1(CCCC)CS(=O)(=O)c2ccc(N(C)C)cc2C(c2cccc(NC(=S)Nc3ccc(C[n+]4cccc(CCCO)c4)cc3)c2)N1.[Br-] (centres unmarked) [EXAMPLE 3747] | – | – | – | 45 | 146 ± 70 | 245 ± 81 | 960 ± 259 | – | – | – | – | – | – | – |
| CCCCC1(CCCC)CS(=O)(=O)c2ccc(N(C)C)cc2C(c2cccc(NC(=S)CCCCC[N+]34CCC(CC3)CC4)c2)N1.[Br-] (centres unmarked) [EXAMPLE 1, 1-{5-[3-(3,3-dibutyl-7-dimethylamino-1,1-dioxo-2,3,4,5-tetrahydro-1,4-benzothiazepine-5-yl)phenylthiocarbamoyl]pentyl}-1-azoniabicyclo[2.2.2]octane bromide] | – | – | – | – | – | – | – | – | – | – | – | 61 ± 4 | 182 ± 42 | 603 ± 78 |
| CCCCC1(CCCC)CS(=O)(=O)c2ccc(N(C)C)cc2C(c2cccc(NC(=S)Nc3ccc(C[n+]4cccc(CCC(=O)OC)c4)cc3)c2)N1.[Br-] (centres unmarked) [EXAMPLE 3752] | – | – | – | 41 | 165 ± 47 | 358 ± 87 | 1112 ± 184 | – | – | – | – | – | – | – |
| CCCCC1(CCCC)CS(=O)(=O)c2ccc(N(C)C)cc2C(c2cccc(NC(=S)Nc3ccc(C[n+]4ccccc4CCC)cc3)c2)N1.[Br-] (centres unmarked) [EXAMPLE 5408] | – | – | – | 32 | 197 ± 45 | 198 ± 65 | 1005 ± 102 | 128 ± 4 | 122 ± 4 | 6 mg/dL | 5 | – | – | – |
| C#CC[N+](C)(Cc1ccccc1)Cc1ccc(NC(=S)Nc2cccc(C3NC(CCCC)(CCCC)CS(=O)(=O)c4ccc(N(C)C)cc43)c2)cc1.[Br-] (racemic) [EXAMPLE 3448] | 181 ± 79 | 352 ± 210 | 1148 ± 332 | 37 | – | – | – | – | – | – | – | – | – | – |
| CCCCC1(CCCC)CS(=O)(=O)c2ccc(N(C)C)cc2C(c2cccc(NC(=S)Nc3ccc(C[n+]4ccc(C(C)(C)C)cc4)cc3)c2)N1.[Br-] (centres unmarked) [EXAMPLE 3713] | – | – | – | 37 | 163 ± 96 | 280 ± 61 | 1008 ± 289 | 117 ± 4 | 113 ± 3 | 4 mg/dL | 3 | – | – | – |
